In patent US6525001B1, “Substituted pyrimidine and pyridine herbicides” (Mid-American Commercialization Corporation, priority 1997, dated 2003):

What was measured:
Format in all cases: in vivo
Set-up in all cases: key: 0 is no effect; 10 is complete control
rape (Brassica napus) = assay: Test B pre-/postemergence
Description: (§1) Seeds of bedstraw (Galium aparine), blackgrass (Alopecurus myosuroides), broadleaf signalgrass (Brachiaria decumbens), cocklebur (Xanthium strumarium), corn (Zea mays), crabgrass (Digitaria sanguinalis), giant foxtail (Setaria faberii), lambsquarters (Chenopodium album), momingglory (Ipomoea hederacea), pigweed (Amaranthus retroflexus), rape (Brassica napus), soybean (Glycine max), sugar beet (Beta vulgaris), velvetleaf (Abutilon theophrasti), wheat (Triticum aestivum), wild oat (Avena fatua) and purple nutsedge (Cyperus rotundus) tubers were planted and treated preemergence with test chemicals formulated in a non-phytotoxic solvent mixture which included a surfactant.
(§2) At the same time, these crop and weed species were also treated with postemergence applications of test chemicals formulated in the same manner. Plants ranged in height from 2 to 18 cm (1- to 4-leaf stage) for postemergence treatments. Plant species in the flood test consisted of rice (Oryza sativa), smallflower flatsedge (Cyperus difformis), duck salad (Heteranthera limosa) and bamyardgrass (Echinochloa crus-galli) grown to the 2-leaf stage for testing. Treated plants and controls were maintained in a greenhouse for twelve to sixteen days, after which all species were compared to controls and visually evaluated. Plant response ratings, summarized in Table B, are based on a scale of 0 to 10 where 0 is no effect and 10 is complete control. A dash (−) response means no test result.

[1] = tested on: cocklebur (Xanthium strumarium); assay: Test B pre-/postemergence; conditions: for Cocklebur plant response rating: Preemergence
Description: as §1, §2

[2] = tested on: pigweed (Amaranthus retroflexus); assay: Test B pre-/postemergence
Description: as §1, §2

[3] = tested on: velvetleaf (Abutilon theophrasti); assay: Test B pre-/postemergence
Description: as §1, §2

[4] = tested on: crabgrass (Digitaria sanguinalis); assay: Test B pre-/postemergence; conditions: for Crabgrass plant response rating: Preemergence
Description: as §1, §2

corn (Zea mays) = assay: Test B pre-/postemergence; conditions: for Corn plant response rating: Preemergence
Description: as §1, §2

[5] = tested on: bedstraw (Galium aparine); assay: Test B pre-/postemergence; conditions: for Bedstraw plant response rating: Preemergence
Description: as §1, §2

[6] = tested on: momingglory (Ipomoea hederacea); assay: Test B pre-/postemergence
Description: as §1, §2

[7] = tested on: broadleaf signalgrass (Brachiaria decumbens); assay: Test B pre-/postemergence; conditions: for B. signalgrass plant response rating: Preemergence
Description: as §1, §2

[8] = tested on: blackgrass (Alopecurus myosuroides); assay: Test B pre-/postemergence; conditions: for Blackgrass plant response rating: Preemergence
Description: as §1, §2

soybean (Glycine max) = assay: Test B pre-/postemergence
Description: as §1, §2

[9] = tested on: purple nutsedge (Cyperus rotundus); assay: Test B pre-/postemergence
Description: as §1, §2

[10] = tested on: giant foxtail (Setaria faberii); assay: Test B pre-/postemergence
Description: as §1, §2

wild oat (Avena fatua) = assay: Test B pre-/postemergence
Description: as §1, §2

[11] = tested on: sugar beet (Beta vulgaris); assay: Test B pre-/postemergence
Description: as §1, §2

[12] = tested on: wheat (Triticum aestivum); assay: Test B pre-/postemergence
Description: as §1, §2

[13] = tested on: bamyardgrass (Echinochloa crus-galli); assay: Test B flood test
Procedure, shortened: (§3)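 Each value is a visual injury score relative to controls, with 10 meaning complete control and 0 no effect. Evaluation took place twelve to sixteen days after the 2-leaf-stage plants were treated and kept in the greenhouse.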

[14] = tested on: smallflower flatsedge (Cyperus difformis); assay: Test B flood test
Procedure, shortened: as §3

[15] = tested on: duck salad (Heteranthera limosa); assay: Test B flood test
Procedure, shortened: as §3

rice (Oryza sativa) = assay: Test B flood test
Procedure, shortened: as §3

[16] = Rate 250 g/ha, Postemergence (so in the source)
[17] = Rate 62 g/ha, Postemergence (flood test)
[18] = Rate 125 g/ha, Postemergence, flood test
[19] = Rate 250 g/ha, Postemergence (flood test species)
[20] = Rate 125 g/ha, Postemergence section (flood test species)

Cc1cnc(-c2cccc(C(F)(F)F)c2)nc1Cc1cccc(C#N)c1 [Compound 39]
9: Sugarbeets plant response rating ([11]; Rate 125 g/ha, Postemergence)
4: Plant response rating, Rape (rape (Brassica napus); Rate 250 g/ha, Postemergence) | Plant response rating, Bedstraw ([5]; Rate 250 g/ha, Postemergence)
5: Plant response rating, Cocklebur ([1]; Rate 250 g/ha, Postemergence)
2: Plant response rating, Cocklebur ([1]; Rate 62 g/ha, Postemergence) | Plant response rating, Cocklebur ([1]; Rate 125 g/ha, Postemergence) | Plant response rating, Redroot pigweed ([2]; Rate 62 g/ha, Postemergence) | Redroot pigweed plant response rating ([2]; Rate 125 g/ha, Postemergence) | Plant response rating, Soybean (soybean (Glycine max); Rate 250 g/ha, Postemergence) | S. Flatsedge plant response rating [14, 20] | Plant response rating, S. Flatsedge [14, 19]
3: Plant response rating, Redroot pigweed ([2]; Rate 250 g/ha, Postemergence) | Plant response rating, Bedstraw ([5]; Rate 62 g/ha, Postemergence) | Plant response rating, Bedstraw ([5]; Rate 125 g/ha, Postemergence)
10: Plant response rating, Sugarbeets ([11]; Rate 250 g/ha, Postemergence)
1: Plant response rating, Rape (rape (Brassica napus); Rate 62 g/ha, Postemergence) | Rape plant response rating (rape (Brassica napus); Rate 125 g/ha, Postemergence) | Velvetleaf plant response rating ([3]; Rate 125 g/ha, Postemergence) | Plant response rating, Velvetleaf ([3]; Rate 250 g/ha, Postemergence) | Plant response rating, Crabgrass ([4]; Rate 250 g/ha, Postemergence) | Plant response rating, Corn (corn (Zea mays); Rate 62 g/ha, Postemergence) | Plant response rating, Corn (corn (Zea mays); Rate 125 g/ha, Postemergence) | Plant response rating, Corn (corn (Zea mays); Rate 250 g/ha, Postemergence) | Plant response rating, Morningglory ([6]; Rate 62 g/ha, Postemergence) | Morningglory plant response rating ([6]; Rate 125 g/ha, Postemergence) | Plant response rating, Morningglory ([6]; Rate 250 g/ha, Postemergence) | Plant response rating, B. signalgrass ([7]; Rate 62 g/ha, Postemergence) | Plant response rating, B. signalgrass ([7]; Rate 125 g/ha, Postemergence) | Plant response rating, B. signalgrass ([7]; Rate 250 g/ha, Postemergence) | Plant response rating, Blackgrass ([8]; Rate 62 g/ha, Postemergence) | Plant response rating, Blackgrass ([8]; Rate 125 g/ha, Postemergence) | Plant response rating, Blackgrass ([8]; Rate 250 g/ha, Postemergence) | Plant response rating, Soybean (soybean (Glycine max); Rate 62 g/ha, Postemergence) | Soybean plant response rating (soybean (Glycine max); Rate 125 g/ha, Postemergence) | Giant foxtail plant response rating ([10]; Rate 125 g/ha, Postemergence) | Plant response rating, Giant foxtail ([10]; Rate 250 g/ha, Postemergence) | Wild oats plant response rating (wild oat (Avena fatua); Rate 62 g/ha, Postemergence) | Wild oats plant response rating (wild oat (Avena fatua); Rate 125 g/ha, Postemergence) | Plant response rating, Wild oats (wild oat (Avena fatua); Rate 250 g/ha, Postemergence) | Wheat plant response rating ([12]; Rate 125 g/ha, Postemergence) | Plant response rating, Wheat ([12]; Rate 250 g/ha, Postemergence)
7: Plant response rating, Sugarbeets ([11]; Rate 62 g/ha, Postemergence)
0: Rape plant response rating (rape (Brassica napus); Rate 62 g/ha, Preemergence) | Rape plant response rating (rape (Brassica napus); Rate 125 g/ha, Preemergence) | Plant response rating, Rape (rape (Brassica napus); [16]) | Cocklebur plant response rating ([1]; Rate 62 g/ha) | Cocklebur plant response rating ([1]; Rate 125 g/ha) | Plant response rating, Cocklebur [1, 16] | Redroot pigweed plant response rating ([2]; Rate 62 g/ha, Preemergence) | Redroot pigweed plant response rating ([2]; Rate 125 g/ha, Preemergence) | Plant response rating, Redroot pigweed [2, 16] | Plant response rating, Velvetleaf ([3]; Rate 62 g/ha, Postemergence) | Velvetleaf plant response rating ([3]; Rate 62 g/ha, Preemergence) | Plant response rating, Velvetleaf ([3]; Rate 125 g/ha, Preemergence) | Plant response rating, Velvetleaf [3, 16] | Plant response rating, Crabgrass ([4]; Rate 62 g/ha, Postemergence) | Crabgrass plant response rating ([4]; Rate 62 g/ha) | Plant response rating, Crabgrass ([4]; Rate 125 g/ha, Postemergence) | Crabgrass plant response rating ([4]; Rate 125 g/ha) | Plant response rating, Crabgrass [4, 16] | Corn plant response rating (corn (Zea mays); Rate 62 g/ha) | Corn plant response rating (corn (Zea mays); Rate 125 g/ha) | Plant response rating, Corn (corn (Zea mays); [16]) | Bedstraw plant response rating ([5]; Rate 62 g/ha) | Bedstraw plant response rating ([5]; Rate 125 g/ha) | Plant response rating, Bedstraw [5, 16] | Morningglory plant response rating ([6]; Rate 62 g/ha, Preemergence) | Morningglory plant response rating ([6]; Rate 125 g/ha, Preemergence) | Plant response rating, Morningglory [6, 16] | B. signalgrass plant response rating ([7]; Rate 62 g/ha) | B. signalgrass plant response rating ([7]; Rate 125 g/ha) | Plant response rating, B. signalgrass ([7]; Rate 250 g/ha, Postemergence as printed in head r139 (second section for compounds 26-50)) | Blackgrass plant response rating ([8]; Rate 62 g/ha) | Blackgrass plant response rating ([8]; Rate 125 g/ha) | Plant response rating, Blackgrass [8, 16] | Soybean plant response rating (soybean (Glycine max); Rate 62 g/ha, Preemergence) | Plant response rating, Soybean (soybean (Glycine max); Rate 125 g/ha, Preemergence) | Plant response rating, Soybean (soybean (Glycine max); [16]) | Plant response rating, Nutsedge ([9]; Rate 62 g/ha, Postemergence) | Nutsedge plant response rating ([9]; Rate 62 g/ha, Preemergence) | Nutsedge plant response rating ([9]; Rate 125 g/ha, Postemergence) | Nutsedge plant response rating ([9]; Rate 125 g/ha, Preemergence) | Plant response rating, Nutsedge ([9]; Rate 250 g/ha, Postemergence) | Plant response rating, Nutsedge [9, 16] | Plant response rating, Giant foxtail ([10]; Rate 62 g/ha, Postemergence) | Giant foxtail plant response rating ([10]; Rate 62 g/ha, Preemergence) | Giant foxtail plant response rating ([10]; Rate 125 g/ha, Preemergence) | Plant response rating, Giant foxtail [10, 16] | Wild oats plant response rating (wild oat (Avena fatua); Rate 62 g/ha, Preemergence) | Plant response rating, Wild oats (wild oat (Avena fatua); Rate 125 g/ha, Preemergence) | Plant response rating, Wild oats (wild oat (Avena fatua); [16]) | Sugarbeets plant response rating ([11]; Rate 62 g/ha, Preemergence) | Plant response rating, Sugarbeets ([11]; Rate 125 g/ha, Preemergence) | Plant response rating, Sugarbeets [11, 16] | Wheat plant response rating ([12]; Rate 62 g/ha, Postemergence) | Wheat plant response rating ([12]; Rate 62 g/ha, Preemergence) | Plant response rating, Wheat ([12]; Rate 125 g/ha, Preemergence) | Plant response rating, Wheat [12, 16] | Plant response rating, Barnyardgrass [13, 17] | Plant response rating, Barnyardgrass [13, 18] | Plant response rating, Barnyardgrass [13, 19] | Plant response rating, S. Flatsedge [14, 17] | Plant response rating, Ducksalad [15, 17] | Plant response rating, Ducksalad [15, 18] | Plant response rating, Ducksalad [15, 19] | Plant response rating, Rice (rice (Oryza sativa); [17]) | Rice plant response rating (rice (Oryza sativa); [20]) | Plant response rating, Rice (rice (Oryza sativa); [19])
